Assay results as given in patent publication US6465527B1, “Iodinated hydrocarbon pesticide” (priority 1999, dated 2002).
Entries after “also recorded” stand apart in the source; their conditions may differ.

How the values were obtained:
Assay type in all cases: in vivo
[1] = test system: reniform nematode [Rotylenchulus reniformis]; test: Greenhouse nematicide test in cotton field soil, covered and uncovered pots (Experiment 6, FIGS. 1-4)
Excerpt: FIGS. 2 and 3 illustrate the effectiveness of the diiodoethane and diiodopropane in eliminating the nematode (Rotylenchulus reniformis) from a soil sample. The “x” axis on the top row illustrates the quantity of iodinated hydrocarbon in milligrams per kilogram of soil. The next two rows below the “x” axis indicate the number of nematodes per 100 milliliters of soil, which is also indicated on the “y” axis. In FIG. 2, 1,2-diiodoethane was applied to the soil both in a covered state and an uncovered state. […] This is believed to be so because of the volatility of 1,2 diiodoethane, wherein the cover slows down the rate at which the compound evaporates into the atmosphere.
In this experiment, the pesticidal and herbicidal properties of volatile, low molecular weight, iodinated hydrocarbons were investigated. The relative nematicidal efficacy of iodomethane [C1], 1,2-diiodoethane [C2], 1,3-diiodopropane [C3] and 1,4-diiodobutane [C4] was studied in greenhouse experiments with soil from a cotton field infested with the reniform nematode [Rotylenchulus reniformis]. The chemicals were obtained from Aldrich, Milwaukee, U.S.A. Emulsifiable concentrates of the compounds were prepared by dilution in acetone containing an emulsogen.
For each chemical, an aqueous emulsion with 0.2% [w/w] of the compound was prepared and was applied to soil at rates of 2, 4, 6, 8, 10, and 12 mgs a.i./Kg soil. The treated soil was mixed and transferred to 1L capacity 10-cm diameter cylindrical pots. Pots with untreated soil [control] and with treated soil were placed on a greenhouse bench in a randomized complete block design. Each treatment was represented by 14 replications [pots], one half of which were left uncovered, and the other 7 were covered with polyethylene plastic bags [approx. 1 mil thickness] retained with a rubber around the pots. Soil samples for nematological analysis [salad bowl incubation technique] were collected 7-10 days after application of the materials. […] In covered pots, applications of the material were particularly effective resulting in 100% kill with the 10 and 12 mg rates. All dosages of C3 and C4 eliminated the nematode in covered pots. […] In a greenhouse experiment of similar design to the nematicide experiments, the C3 and C4 emulsions were applied at rates of 2-20 mgs a.i./Kg soil to a soil infested with crabgrass [Digitaria sanguinalis], purple nutsedge [Cyperus rotundus], Jimson weed [Datura stramonium] and a variety of other weed species. All pots were covered, and the number of weeds were counted 7, 14 and 30 days after application of the chemicals.

Heterodera glycines = test: Greenhouse nematicide test, diiodinated C2-C8 hydrocarbons in infested field soil (Experiments 1 and 2)
Meloidogyne arenaria = test: as above
'Brim' soybean = test: Soybean growth and root condition in treated soil (Experiment 5)
Method: In this experiment, the nematotoxic properties of ethylene diiodide were compared to that of methyl iodide. The nematicidal efficacies of iodomethane [IM] and ethylene diiodide [EDI] were compared in a greenhouse experiment using field soil infested with Meloidogyne arenaria, Pratylenchus brachyurus, and Paratrichodorus christiei.
Each compound was added to soil at rates of 100, 200, 300 and 400 mg s/kg of soil. The soil was potted and kept moist for two weeks when it was planted with ‘Brim’ soybean after taking samples for nematological analyses. After eight weeks of growth, the plants were removed from the pots and soil samples taken. Data was collected on weights of fresh roots and shoots, general appearance of roots [root condition index] and root gall formation by M. arenaria. All EDI rates eliminated M. arenaria juveniles [J2] and populations of the other nematodes in the preplant samples; IM reduced J2 numbers by 50-70%, eliminated P. christiei with the 400 mg rate, but had no effect on P. brachyurus. […] The general appearance of roots was improved by EDI at rates ≦300 mg, but MI had no effect on the variable. […] M. arenaria J2 populations in roots were reduced by 60-70% by MI treatments, but the compound had no effect on root populations of P. brachyurus. MI had no effect on J2 populations in the final soil samples, although it suppressed P. christiei, by 50-70%.

[2] = all rates (2.5, 5.0, 7.5, 10 mg/Kg soil)

Compound: ICCI [1,2-diiodoethane]
- Numbers of the nematode in soil in response to rates ([1]; 2-12 mgs a.i./Kg soil): declined linearly
- Kill of the nematode ([1]; covered pots, 10 and 12 mg rates): 100%
- Effectiveness covered versus uncovered at eliminating the nematodes (FIG. 2) ([1]; covered state and uncovered state): covered samples were more effective
- H. glycines J2 populations in preplant samples (Heterodera glycines; [2]): ineffective
- H. glycines J2 numbers in final soil samples (Heterodera glycines; final soil samples after soybean growth, rates 2.5-10 mg/kg soil, listed as C2): either no change in H. glycines J2 numbers or in increased numbers; also recorded: either no change in Hg J2 numbers or in increased numbers
- H. glycines J2 populations in preplant samples (Heterodera glycines; rates ≧5.0 mg): suppressed
- M. arenaria juvenile (J2) populations in preplant samples (Meloidogyne arenaria; [2]): ineffective
- M. arenaria J2 numbers in final soil samples (Meloidogyne arenaria; final soil samples after soybean growth, rates 2.5-10 mg/kg soil): increased directly with C2 dosage
- Phytotoxicity to soybean ('Brim' soybean; 400 mg): phytotoxic
- General appearance of roots [root condition index] ('Brim' soybean; rates ≦300 mg): improved
